Test results as given in patent US20250161422A1, “ARGINASE 2 VACCINE” (IO Biotech ApS, priority 2022, published 2025).

Experiments:
[1] = system: PBMCs from healthy donors or cancer patients; assay: In vitro peptide stimulation of PBMCs and IFNγ ELISPOT; format: cell-based, human; settings: for IFNγ ELISPOT response, screening: PBMCs of five healthy HLA-A2+ donors, restimulated after 12-14 days; for IFNγ ELISPOT response, validation (repetition): healthy donors, repeat ELISPOT (FIG. 5); for IFNγ ELISPOT response in 17 HDs: 17 healthy donors of undetermined HLA-type
Description: PBMCs from healthy donors or cancer patients were subjected to in vitro stimulation with ARG2-derived peptides by plating the cells with 10 μM peptide. The following day, the cells received low-dose IL-2 (120 U/ml) treatment. At 10-14 days after peptide stimulation, the cells were used for IFNγ ELISPOT. ELISPOT plates were coated with […] IFNγ capture antibody (MabTech) overnight. The next day, the plates were washed and blocked in X-vivo media followed by the plating of 2.5-3.5×10^5 PBMCs per well for ELISPOT, with and without restimulation with 5 μM peptide. A minimum of triplicate wells were set up pr. condition. The cells were incubated 14-16 hours before they were washed and a biotin-conjugated secondary antibody (Mabtech) was added, followed by a 2-hour incubation. Next, the cells were washed again, followed by incubation with streptavidin-conjugated alkaline phosphatase (Mabtech) for 1 hour. Finally, spots were developed by addition of BCIP/NBT substrate (Mabtech). Tap water was used to stop the reaction. Spots corresponding to IFNγ secretion were quantified by visualization on a CTL ImmunoSpot S6 Ultimate-V analyzer with ImmunoSpot software version 5.1. Peptide-specific IFNγ secreting cells were calculated by subtracting the average spot count in control wells from the average spot count in peptide-stimulated wells. […] Peptide pulsing was performed by incubating the target cells with 20 μM peptide for 1 hour, followed by two washes to remove unbound peptide. Effector cells with added peptide served as the positive control and […] plated without […] as the negative control. In ELISPOTs assays with immune cells as target cells, wells containing only effector cells were also included as controls. The average spot count from replicate wells was subtracted from the spot count of effector cells plated with the respective target cells. These 15 peptides ([…] to […]) were screened in peripheral blood mononuclear cells (PBMCs) from five healthy donors (HD), who were confirmed to be HLA-A2 positive (HLA-A2^+). PBMCs were stimulated with each peptide in vitro and restimulated in IFNγ ELISPOT after 12-14 days of culture.

[2] = system: PBMCs / peptide-specific T-cell cultures; assay: Intracellular cytokine staining for TNFα and IFNγ; format: cell-based, human; settings: for T-cell subset that responds (ICS for TNFα and IFNγ): peptide-stimulated healthy donor PBMCs
Description: PBMCs were in vitro stimulated with peptide as described above. At 10-14 days post-simulation, the cells were used for intracellular cytokine staining. […] After a 4-hour incubation period, the cells were washed and stained for the extracellular markers CD3-APC/H7, CD4-FITC, and CD8-PerCP, and dead cells were stained with FVS-510. Next, the cells were permeabilized using Fixation/Permeabilization buffer (Invitrogen), followed by staining with IFNγ-APC and TNFα-BV421. Data were acquired using a BD Canto II flow cytometer and analyzed using FlowJo.
(§1) ARG2-specific T-cell cultures were obtained by stimulation of PBMCs with ARG2-S05 peptide, followed by low-dose IL-2 (120 U/mL) the next day. At 12 days after peptide stimulation, the cells were re-stimulated with peptide, and IFNγ-secreting cells were isolated using magnetic beads. Next, these cells were expanded using a rapid expansion protocol, including feeder cells, CD3 antibody, and high-dose IL-2 (3000-6000 U/mL). On day 16-17, culture specificity was determined by stimulation with ARG2-S05 peptide and determination of the cytokine release by ICS.
To further characterize the ARG2-specific CD8^+ T cells, A2S05-specific T-cell cultures from four donors were established. Briefly, donor PBMCs were stimulated with A2S05 in vitro. 12 days later, peptide-specific T cells were re-stimulated and isolated using an IFNγ capture kit. IFNγ-producing cells were expanded using a rapid expansion protocol and the specificity was examined at 16-17 days after expansion by ICS for IFNγ and TNF.

[3] = system: splenocytes of vaccinated mice; assay: Murine IFNγ ELISPOT on splenocytes; format: in vivo, C57BL/6 mice; settings: splenocytes of ARG2-vaccinated Pan02 mice plated with ARG1 peptide
Description: The purity of all synthesized peptides was >90%.
Mice were sacrificed at endpoint for tumor studies and one week after the last vaccination for the remaining studies. Spleens were harvested, smashed through a 70 μm filter, and red blood cells were lysed with Red Blood Cell Lysis Solution (Qiagen). 8×10^5 splenocytes were plated per well in IFNγ ELISPOT plates. IFNγ ELISPOT was performed as previously described. Tumors were harvested, cut into smaller pieces and enzymatically digested in RPMI medium containing 2.1 mg/ml collagenase type 1 (Worthington), 75 μg/ml DNase I (Worthington), 5 mM CaCl2, and 1% P/S. Cells were filtered through a 70 μm cell strainer and red blood cells were lysed as described above. CD45+tumor infiltrating lymphocytes (TILs) were isolated from tumor single-cell suspensions with CD45 microbeads (for MC38 and LL2 tumors) (Miltenyi Biotec) or with CD45 (TIL) microbeads (for B16-F10 tumors) (Miltenyi Biotec). The isolated CD45+ cells were rested overnight. 5×10^5 CD45+ cells were plated per well in IFNγ ELISPOT plates. For phenotyping ARG2 responses, CD8+ and CD4^+ T cells were isolated from the spleen of vaccinated mice with CD8a (Ly-2) and CD4 (L3T4) microbeads (Miltenyi Biotec), respectively, following manufacturer's instruction. Isolated T cells were rested overnight. […]

[4] = system: murine model of lung cancer; settings: previously shown by the inventors; cited from earlier work
[5] = system: splenocytes of vaccinated mice; settings: previously identified by the inventors; cited from earlier work
[6] = system: HLA-A1+, HLA-C7+ or HLA-B8+ cancer cell lines (FM6, FM28, FM82, OCI-M2); assay: IFNγ ELISPOT of A2S05-specific T cells with peptide-pulsed cancer cell lines; format: cell-based, human; settings: for IFNγ ELISPOT reactivity of A2S05-specific T cells to peptide-pulsed HLA-B8+ FM6: metastatic malignant melanoma cell line FM6
Description: Peptide-specific IFNγ secreting cells were calculated by subtracting the average spot count in control wells from the average spot count in peptide-stimulated wells. ELISPOT assays with ARG2-specific T cells (effector cells) and various immune cells or cancer cells as target cells were set up by adding 3×10^4-5×10^4 effector cells to ELISPOT wells followed by 5×10^3-10^4 target cells. Peptide pulsing was performed by incubating the target cells with 20 μM peptide for 1 hour, followed by two washes to remove unbound peptide. Effector cells with added peptide served as the positive control and target cells plated without […] as the negative control. In ELISPOTs assays with immune cells as target cells, wells containing only effector cells were also included as controls. The average spot count from replicate wells was subtracted from the spot count of effector cells plated with the respective target cells.
as §1
FM6 was confirmed to be HLA-B8^+ by flow cytometry and confirmed to express ARG2 by RT-qPCR (FIG. 6).

PBMCs = assay: Ex vivo IFNγ ELISPOT; format: cell-based, human; settings: donors with strong in vitro responses
Description: PBMCs were thawed and rested overnight. The next day, 9×10^5 cells were plated pr. well. Control and peptide stimulations were performed in at least triplicate. The rest of the protocol was performed as described above.

Sequence: GLLSALDLV (listed as Homo sapiens) [A2S14, human ARG2 positions 287-295]
- IFNγ ELISPOT response, screening [1]: significant responses in PBMCs from three or more donors
- IFNγ ELISPOT response, validation (repetition) [1]: strong IFNγ ELISPOT responses
- T-cell subset that responds (ICS for TNFα and IFNγ) [2]: reaction was from CD4^+ T cells

Sequence: ISAKDIVYI (listed as Mus musculus) [mARG1_169-177, murine ARG1 peptide from the corresponding region, control for specific recognition]
- cross-reactivity of vaccine-induced responses to ARG1 peptide [3]: no cross-reactivity

Sequence: LLSALDLVEV (listed as Homo sapiens) [A2S15, human ARG2 positions 288-297]
- IFNγ ELISPOT response, screening [1]: significant responses in PBMCs from three or more donors
- IFNγ ELISPOT response, validation (repetition) [1]: did not show significant responses

Sequence: LSPPNIVYI (listed as Mus musculus) [mARG2_188-196]
- tumor growth in murine model of lung cancer [4]: induced tumor growth delay
- T-cell responses upon a single vaccination [5]: strong and frequent T-cell responses

Sequence: NLIVNPRSV (listed as Homo sapiens) [A2S05, human ARG2 positions 84-92]
- IFNγ ELISPOT reactivity of A2S05-specific T cells to peptide-pulsed HLA-A1+ and HLA-C7+ cell lines ([6]; T cells from HD78 and HD93): no reactivity
- IFNγ ELISPOT reactivity of A2S05-specific T cells to additional HLA-B8+ cell lines ([6]; all four T-cell cultures, FM28, FM82, OCI-M2): reactivity against three additional HLA-B8^+ cell lines
- IFNγ ELISPOT reactivity of A2S05-specific T cells to peptide-pulsed HLA-B8+ FM6 [6]: recognition and reactivity activity
- HLA restriction of the peptide ([6]; recognition and cytolytic activity against HLA-B8+ lines): HLA-B8 restriction
- IFNγ ELISPOT response in 17 HDs [1]: only few responses
- donors with statistically significant IFNγ ELISPOT responses ([1]; 38 donors with known HLA-A2 status (13 cancer patients, 25 healthy donors)): 10 out of the 38
- IFNγ ELISPOT response, screening [1]: significant responses in PBMCs from three or more donors
- IFNγ ELISPOT response, validation (repetition) [1]: strong IFNγ ELISPOT responses
- HLA-A2 restriction from donor responses ([1]; responses in both HLA-A2+ and HLA-A2- donors): not HLA-A2 restricted
- ex vivo IFNγ ELISPOT response (PBMCs): strong and significant responses in PBMCs ex vivo
- specificity of expanded peptide-specific T-cell cultures (ICS for IFNγ and TNF) ([2]; four donors, 16-17 days after expansion): Highly specific CD8+cultures from all four donors
- T-cell subset that responds (ICS for TNFα and IFNγ) [2]: responses were from CD8^+ T-cells

Sequence: QIVKNPRSV (listed as Homo sapiens) [ARG1_65-73, reference compound]
- IFNγ ELISPOT reactivity of A2S05-specific T cells to peptide-pulsed HLA-B8+ FM6 [6]: lack of reactivity

Sequence: SLRGSLSRLLQTRVHSILKKSVHSVAVIGAPFS (listed as Homo sapiens) [A2L2, reference compound]
- IFNγ ELISPOT response in 17 HDs [1]: Strong and frequent responses
